The record followed here is US20050060100A1, “Computer software and algorithms for systems biologically linked to cellular phenotype” (Becton Dickinson and Company, priority 2003, published 2005).

This assay deals with MC3T3-E1 osteoblast cells. Nature of the assay: ECM screen: adhesion of MC3T3-E1 cells to immobilized adhesion ligands (fluorescent nuclei count). Format: cell-based. The following applies: "best factors" approach. The source says:
A statistical design was developed with special consideration of the surface chemistry requirements. In particular, in this experiment the scenario shown in FIG. 9 was used, wherein the overall adhesion ligand density was kept constant from well to well and only the adhesion ligand composition was allowed to change. In other words, the concentration of a single adhesion ligand could be different from well to well, but each well has the same amount of adhesion ligand immobilized overall. This scenario is further described above. An example of such design is shown in the spreadsheet in FIG. 10. The spreadsheet serves as a computer representation of the design which is stored in a database. The top row in […] lists the 10 factors […] used in this particular screen, and their corresponding identities. In the spreadsheet shown, Factor A represents fibronectin, Factor B represents Collagen I, etc. The first column is a list of the experimental points that translate into a well in the 96-well plate, e.g., 52 wells in this case. The numbers in the spreadsheet are the factor levels. In this example, these levels are the actual volumes (in μL) of factor that are added to a particular well. In this particular design, factors get added to the wells at three volumes, e.g., 5 μL, 25 μL, or 50 μL. The total well volume in this case is 50 μL. Thus, for wells where one factor is added at 50 μL, the final well composition will comprise a single adhesion ligand covalently immobilized on the well surface. Accordingly, if 25 μL of a factor is added to a well, a second factor is added at 25 μL also, and the final well composition will comprise a mixture of two different cell adhesion ligands covalently immobilized on the well surface. When 5 μL of a factor are added, nine other factors are added at 5 μL each, as well, thus resulting in wells that comprise a mixture of all 10 cell adhesion ligands on the well surface. These experimental points containing all 10 adhesion ligands are called “mid points” and are an integral part of the statistical design in this example.
With reference now to FIG. 11, a 96-well plate layout is shown, which was translated from the particular statistical design shown in FIG. 10. In particular, the 96-well plate includes the well compositions indicated in FIG. 10, e.g., cell adhesion ligand combinations immobilized at the bottom of each well. In particular, the experimental runs in FIG. 10 correspond to rows/columns in FIG. 11, as follows: runs 1-10 in the design in FIG. 10 represent row B, columns 2-11, respectively on the array in FIG. 11; runs 11-20 represent row C, columns 2-11; runs 21-30 represent row D, columns 2-11; runs 31-40 represent row E, columns 2-11; runs 41-50 represent row F, columns 2-11; and runs 51 and 52 represent row G, columns 2 and 3, respectively. As shown by the statistical design in FIG. 10 and the corresponding 96-well plate layout in FIG. 11 it is an embodiment of the present invention that, in addition to mixtures of agents, single agents can be placed in the receptacles.
Cells were removed from cell culture flasks using trypsin-EDTA according to methods well known in the art. Cells were enumerated, spun down and resuspended in media containing no serum or, alternatively, in media containing 10% fetal calf serum. Cells were plated into the wells of a 96-well microarray according to the layout shown in FIG. 11 and described in Example 3 above. The seeding density was about 10,000 cells per well. Cells were incubated on the plates overnight at 37° C. The following day, media and any cells not adhering to the immobilized agents on the well surfaces were removed. Any adhered cells were fixed by exposure to forrnalin for at least 15 minutes. Propidium iodite was used to fluorescently label the nuclei of said fixed adhered cells. […]

Where [1] appears, read: no serum, FIG. 14, deviation from mid-point reference blend.

Regarding Collagen IV, the “effect on cell count (mixture-model analysis)” value (from here on “effect on cell count”) by setting is: (10% serum, FIG. 15) “positive effect on cell count”; under setting [1], “increase the cell count”.
On to laminin, for which the “effect on cell count” value runs as follows: (10% serum, FIG. 15) “positive effect on cell count”; under setting [1], “increase the cell count”.
As to poly-L-lysine [reference compound], the “effect on cell count” value is reported as “diminishes” (10% serum, FIG. 15) and “marginal effect” under setting [1].
